Measured values reported in patent US12459951B2, “Compounds that interact with RAS superfamily proteins for treatment of cancers, inflammatory diseases, rasopathies, and fibrotic disease” (SHY Therapeutics, LLC, priority 2022, dated 2025).

What was measured:
[1] = system: TNF-alpha; assay: TNF-alpha Quantification Assay (ELISA), LPS-stimulated RAW 264.7; assay type: cell-based; settings: Mus musculus, RAW264.7; at 10 μM; read-out: TNFα: % inh.
[2] = system: MAPK p38 phosphorylation; assay: MAPK p38 Activation Assay (western blot), Panc-1; assay type: cell-based, human; settings: at 10 μM, Panc-1 pancreatic cancer cell line; starred symbols = activation
Protocol: Protocol for MAPK p38 Activation Assay
This assay is referred to as the “MAPK p38 Activation Assay” throughout this application.
Cell lines: Human tumor-derived pancreatic cancer cell line Panc-1 (expressing KRas G12D mutant) was purchased from American Type Culture Collection and grown in complete DMEM-High Glucose medium, supplemented with penicillin (100 U/mL), streptomycin (100 μg/mL), and 10% heat-inactivated FBS at 37° C. in a humidified incubator with 5% CO2.
Method 1: Cells were plated at 350000 cells/well density in a 12-well plate, allowed 3 hours to adhere to the plate, then starved in the appropriate medium in the presence of 0.5% FBS overnight. The small molecules to be tested were added to the cells in the final concentration of 10 μM in the presence of 0.3% DMSO for 6 hours incubation at 37° C. For IC50 value determination, serial dilutions of compounds were added to cells under the same conditions. Next, cells were stimulated with 1.5 ng/ml EGF for 15 minutes then cells were lysed with lysis buffer containing 1% Triton X-100, EDTA, and Halt™ Protease & Phosphatase Inhibitor Cocktail (Thermo Scientific). Protein concentration was assessed by BCA protein assay (Thermo Scientific). Phosphorylation level of MAPK p38 was determined by western blot.
Method 2: Cells were plated at 350000 cells/well density in a 12-well plate in 10% FBS. The next day small molecules to be tested were added to the cells in the final concentration of 10 μM in the presence of 0.3% DMSO for 6 hours incubation at 37° C. For IC50 value determination, serial dilutions of compounds were added to cells under the same conditions. Next, cells were lysed with lysis buffer containing 1% Triton X-100, EDTA, and Halt™ Protease & Phosphatase Inhibitor Cocktail (Thermo Scientific). Protein concentration was assessed by BCA protein assay (Thermo Scientific). Phosphorylation level of MAPK p38 was determined by western blot.
Western blot protocol: Equal amounts of protein (15-50 μg) were separated by SDS-PAGE and transferred to nitrocellulose membranes (Invitrogen by Thermo Fisher Scientific). The membrane was stained with Ponceau S Stain (Boston BioProducts) to verify uniform protein loading. Membranes were blocked with 10% milk and phosphorylation levels of MAPK p38 were assessed by incubating overnight at 4° C. with the following antibody: Phospho-p38 MAPK (Thr180/Tyr182), from Cell Signaling Technology. Then the membranes were incubated with HRP-conjugated secondary antibody (Jackson Immunoresearch, West Grove, PA). Bands were incubated in Amersham ECL Prime Western Blotting Detection Reagent (GE Healthcare) and visualized using the ChemiDoc MP imaging system (Bio-Rad).

[3] = system: Smad2/Smad3 phosphorylation; assay: Phospho-Smad2/3 Inhibition Assay (western blot), Panc-1; assay type: cell-based, human; settings: at 10 μM, Panc-1 pancreatic cancer cell line; starred symbols = activation
Summary of the method: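 Panc-1 cells (KRas G12D), starved overnight in 0.5% FBS, treated 3 h at 37° C with compound at 10 μM final (0.3% DMSO) or serial dilutions for IC50, then stimulated with 10 ng/ml TGF-b1 for 1 h. Phospho-Smad2 (Ser465/467) and phospho-Smad3 (Ser423/425) detected by western blot.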

| Structure (SMILES) | inhibition at 10 µM [1] | % inh of MAPK p38 in Panc-1 [2] | % inh of Smad2/3 phosphorylation in Panc-1 [3] |
| --- | --- | --- | --- |
| CO[C@@H]1C[C@H]1Nc1nc(-c2nccn2C)nn2cc(-c3ccncc3)c(-c3ccccc3)c12 (racemic) [Compound 197, rac N-((1R,2R)-2-methoxycyclopropyl)-2-(1-methyl-1H-imidazol-2-yl)-5-phenyl-6-(pyridin-4-yl)pyrrolo[2,1-f][1,2,4]triazin-4-amine] | 25 to 49% | F (F = 31-74% inhibition) | C (C = 46-75% inhibition) |
| CO[C@H]1C[C@H](Nc2nc(-c3nccn3C)nn3cc(-c4ccc(OCCN)cc4)c(-c4ccccc4)c23)C1.Cl [Compound 208, 6-(4-(2-Aminoethoxy)phenyl)-N-((1r,3r)-3-methoxycyclobutyl)-2-(1-methyl-1H-imidazol-2-yl)-5-phenylpyrrolo[2,1-f][1,2,4]triazin-4-amine hydrochloride salt] | 25 to 49% | G (G = 75-99% inhibition) | D (D = 76-100% inhibition) |
| CO[C@H]1C[C@H](Nc2nc(-c3nccn3C)nn3cc(-c4cccc(CN)c4)c(-c4ccccc4)c23)C1 [Compound 204, 6-(3-(aminomethyl)phenyl)-N-((1r,3r)-3-methoxycyclobutyl)-2-(1-methyl-1H-imidazol-2-yl)-5-phenylpyrrolo[2,1-f][1,2,4]triazin-4-amine] | 25 to 49% | E (E = 1-30% inhibition) | A (A = 1-25% inhibition) |
| COc1ccnc(Nc2nc(-c3nccn3CCNC(=O)CCCC[C@H]3SC[C@H]4NC(=O)N[C@H]43)nn3cc(-c4ccn(C)n4)c(C)c23)c1 [Compound 216, N-(2-(2-(4-((4-methoxypyridin-2-yl)amino)-5-methyl-6-(1-methyl-1H-pyrazol-3-yl)pyrrolo[2,1-f][1,2,4]triazin-2-yl)-1H-imidazol-1-yl)ethyl)-5-((3aR,4R,6aS)-2-oxohexahydro-1H-thieno[3,4-d]imidazol-4-yl)pentanamide] | 25 to 49% | – | C* (C* = 46-75% activation) |
| COc1cc(Nc2nc(-c3nccn3C)nn3cc(-c4ccn(C)n4)c(C)c23)ncc1F [Compound 237, N-(5-Fluoro-4-methoxypyridin-2-yl)-5-methyl-2-(1-methyl-1H-imidazol-2-yl)-6-(1-methyl-1H-pyrazol-3-yl)pyrrolo[2,1-f][1,2,4]triazin-4-amine] | 0% | – | A (A = 1-25% inhibition) |
| CCNC(=O)c1c(-c2ccn(C)n2)cn2nc(-c3nccn3C)nc(Nc3cc(OC)ccn3)c12 [Compound 173, N-Ethyl-4-((4-methoxypyridin-2-yl)amino)-2-(1-methyl-1H-imidazol-2-yl)-6-(1-methyl-1H-pyrazol-3-yl)pyrrolo[2,1-f][1,2,4]triazine-5-carboxamide] | 0% | – | D* (D* = 76-100% activation) |
| COc1ccnc(Nc2nc(-c3nccn3C)nn3cc(-c4ccn(C)n4)c(C(=O)N4CCCC4)c23)c1 [Compound 178, (4-((4-Methoxypyridin-2-yl)amino)-2-(1-methyl-1H-imidazol-2-yl)-6-(1-methyl-1H-pyrazol-3-yl)pyrrolo[2,1-f][1,2,4]triazin-5-yl)(pyrrolidin-1-yl)methanone] | 0% | – | B* (B* = 26-45% activation) |
| Cc1c(-c2ccn(C)n2)cn2nc(-c3nccn3C)nc(Nc3cc(OCCNC(=O)CCCC[C@H]4SC[C@H]5NC(=O)N[C@H]54)ccn3)c12 [Compound 186, N-(2-((2-((5-Methyl-2-(1-methyl-1H-imidazol-2-yl)-6-(1-methyl-1H-pyrazol-3-yl)pyrrolo[2,1-f][1,2,4]triazin-4-yl)amino)pyridin-4-yl)oxy)ethyl)-5-((3aR,4R,6aS)-2-oxohexahydro-1H-thieno[3,4-d]imidazol-4-yl)pentanamide] | 1 to 24% | – | D* (D* = 76-100% activation) |
| COc1ccnc(Nc2nc(-c3nccn3C)nn3cc(-c4ccn(C)n4)c(C(=O)NC4CC4)c23)c1 [Compound 175, N-Cyclopropyl-4-((4-methoxypyridin-2-yl)amino)-2-(1-methyl-1H-imidazol-2-yl)-6-(1-methyl-1H-pyrazol-3-yl)pyrrolo[2,1-f][1,2,4]triazine-5-carboxamide] | 0% | – | B* (B* = 26-45% activation) |
| Cc1cnc2c(c1)CCN2c1nc(-c2nccn2C)nn2cc(-c3ccn(C)n3)c(C)c12 [Compound 239, 5-Methyl-2-(1-methyl-1H-imidazol-2-yl)-6-(1-methyl-1H-pyrazol-3-yl)-4-(5-methyl-2,3-dihydro-1H-pyrrolo[2,3-b]pyridin-1-yl)pyrrolo[2,1-f][1,2,4]triazine] | 1 to 24% | – | 0 (0 = 0% inhibition) |
| CCOc1ccc(Nc2nc(-c3nccn3C)nn3cc(-c4ccn(C)n4)c(C)c23)nc1 [Compound 229, N-(5-Ethoxypyridin-2-yl)-5-methyl-2-(1-methyl-1H-imidazol-2-yl)-6-(1-methyl-1H-pyrazol-3-yl)pyrrolo[2,1-f][1,2,4]triazin-4-amine] | 0% | – | A* (A* = 1-25% activation) |
| Cn1ccnc1-c1nc(O)c2c(-c3ccccc3)c(-c3cccnc3)cn2n1 [Compound 189, 2-(1-Methyl-1H-imidazol-2-yl)-5-phenyl-6-(pyridin-3-yl)pyrrolo[2,1-f][1,2,4]triazin-4-ol] | 1 to 24% | – | B (B = 26-45% inhibition) |
| COCCNC(=O)c1c(-c2ccn(C)n2)cn2nc(-c3nccn3C)nc(N[C@H]3CC[C@H](OC)C3)c12 (racemic) [Compound 183, rac 4-(((1S,3S)-3-Methoxycyclo-pentyl)amino)-N-(2-methoxyethyl)-2-(1-methyl-1H-imidazol-2-yl)-6-(1-methyl-1H-pyrazol-3-yl)pyrrolo[2,1-f][1,2,4]triazine-5-carboxamide] | 25 to 49% | – | D* (D* = 76-100% activation) |
| COc1cc(Nc2nc(-c3nccn3C)nn3cc(-c4cccnc4)c(-c4cccnc4)c23)ncn1 [Compound 170, N-(6-Methoxypyrimidin-4-yl)-2-(1-methyl-1H-imidazol-2-yl)-5,6-di(pyridin-3-yl)pyrrolo[2,1-f][1,2,4]triazin-4-amine] | 0% | – | A (A = 1-25% inhibition) |
| Cc1c(-c2ccn(C)n2)cn2nc(-c3nccn3C)nc(O)c12 [Compound 172, 5-Methyl-2-(1-methyl-1H-imidazol-2-yl)-6-(1-methyl-1H-pyrazol-3-yl)pyrrolo[2,1-f][1,2,4]triazin-4-ol] | 0% | – | A (A = 1-25% inhibition) |
| COc1cnc(Nc2nc(-c3nccn3C)nn3cc(-c4ccn(C)n4)c(C)c23)cc1C [Compound 236, N-(5-Methoxy-4-methylpyridin-2-yl)-5-methyl-2-(1-methyl-1H-imidazol-2-yl)-6-(1-methyl-1H-pyrazol-3-yl)pyrrolo[2,1-f][1,2,4]triazin-4-amine] | 0% | – | 0 (0 = 0% inhibition) |
| CO[C@H]1C[C@H](Nc2nc(-c3nccn3C)nn3cc(-c4cccc(OCCN)c4)c(-c4ccccc4)c23)C1 [Compound 205, 6-(3-(2-Aminoethoxy)phenyl)-N-((1r,3r)-3-methoxycyclobutyl)-2-(1-methyl-1H-imidazol-2-yl)-5-phenylpyrrolo[2,1-f][1,2,4]triazin-4-amine] | – | G (G = 75-99% inhibition) | D (D = 76-100% inhibition) |
